This passage reports IC50 and inhibition results from patent US8022091B2, “Triazole derivative” (Taisho Pharmaceutical Co., Ltd., priority 2006, dated 2011).

The target in one test is T1, human Edg-1 (S1P1) (Homo sapiens, UniProt P21453).
T1 construct: expressed in transfected cells; host or cells: HEK-293
T1 sequence (P21453 whole entry): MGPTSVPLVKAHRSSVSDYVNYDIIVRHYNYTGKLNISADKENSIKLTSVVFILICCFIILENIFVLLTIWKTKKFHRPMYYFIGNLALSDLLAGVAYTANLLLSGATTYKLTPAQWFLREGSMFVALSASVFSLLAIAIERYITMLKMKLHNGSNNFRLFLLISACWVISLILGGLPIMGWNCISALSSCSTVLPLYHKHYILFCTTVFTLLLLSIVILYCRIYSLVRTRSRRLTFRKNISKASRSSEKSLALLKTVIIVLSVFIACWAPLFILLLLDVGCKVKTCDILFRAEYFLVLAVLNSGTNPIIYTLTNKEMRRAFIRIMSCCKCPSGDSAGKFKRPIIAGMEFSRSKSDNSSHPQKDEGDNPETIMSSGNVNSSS
Briefly: S1P1 binding assay: inhibition of [33P]-S1P binding to membrane fraction of HEK-293 cells transferred with the human Edg-1 (S1P1) gene. To be noted: [33P]-S1P 0.1 nM, human Edg-1 (S1P1) HEK-293 membrane fraction, 1 h at 30° C.; read-out: IC50 (concentration at which binding in the absence of the test compound was inhibited by 50%). On the procedure: The membrane fraction was obtained by treating the cells with a solubilizing buffer (1 mM Tris/HCl, pH 7.2) for 10 minutes on ice, centrifuging at 1000×g for 5 minutes to remove insoluble fractions, and then centrifuging at 40000×g for 30 minutes at 4° C. The resulting membrane fraction was dissolved in a binding buffer (20 mM Tris-HCl, pH 7.4, 100 mM NaCl, 15 mM NaF, 2 mM deoxypyridoxine, 4 mg/mL fatty acid-free BSA), and then [^33P]-S1P (manufactured by ARC, final concentration 0.1 nM) and a DMSO solution (final concentration of the compound 10^−5M, final concentration of DMSO 0.1%) of the test compound were added. Thereafter, the mixture was stirred and then treated for one hour at 30° C. Using a harvester, the membrane fraction was harvested onto unifilter-96 GF/C filter (manufactured by Perkin Elmer), washing was carried out four times with the binding buffer, and the filter was dried. Twenty five μL Microscint 0 (manufactured by Perkin Elmer) was added, and radioactivity was measured using Top Count NXT (manufactured by Packard) to calculate the amount (A) of [^33P]-S1P bound to the membrane fraction at the time when the compound was added.
The same procedure was carried out in the absence of the test compound, and the amount (B) of [^33P]-S1P bound was calculated. Further, the same procedure was carried out in the absence of the test compound by use of HEK-293 cells to which no Edg-1 (S1P1) gene was introduced, and the background amount (C) of [^33P]-S1P bound was calculated.
Inhibition rate (%)=[1−(A−C)/(B−C)]×100
Further, concentrations (IC50) at the time when binding in the absence of the test compound was inhibited by 50% were calculated. The membrane system binding assay was carried out in the presence of test compounds with various concentrations, and the Edg-1 (S1P1) binding inhibition rates were calculated using the equation above. Then, IC50 values were calculated using Origin (Lightstone Corp.), a software for data analysis.
With `CCn1c(Oc2cccc(N3CCC4(CC3)OCCO4)c2)nnc1[C@@H](C)NS(=O)(=O)c1ccc(Cl)c(Cl)c1` [Compound 87, 3,4-Dichloro-N-((R)-1-[5-[3-(1,4-dioxa-8-aza-spiro[4.5]decan-8-yl)-phenoxy]-4-ethyl-4H-[1,2,4]triazol-3-yl]-ethyl)-benzenesulfonamide], the IC50 was not above 0.01 µM.
The same measure, in the same setting: the value for `CCC(NS(=O)(=O)c1ccc2c(Cl)cccc2c1)c1nnc(Oc2cccc(N3CCN(C)CC3)c2)n1CC` (stereo not shown) [Compound 671] was not above 0.01 µM.
Still for that read-out and setting: the value for `CCn1c(Oc2ccc3cc[nH]c3c2)nnc1[C@@H](C)NS(=O)(=O)c1ccc2c(Cl)cccc2c1` [Compound 151] was not above 0.01 µM.

Still in this test, the particulars now being: test compound 10 μM; inhibition of [33P]-S1P binding, membrane fraction.
In the case of `CCn1c(Oc2cccc(N3CCN(C)CC3)c2)nnc1[C@@H](C)NS(=O)(=O)c1ccc(OC)cc1OC` [Compound 642], the inhibition (commonly the change of the read-out against control, counted positive when it falls) at 10 µM is 85.5%.
On the same count and under the same terms, the value for `CCn1c(Oc2cccc(N3CCN(C)CC3)c2)nnc1[C@@H](C)NS(=O)(=O)c1ccc(I)cc1` [Compound 525] was 111%; that for `CCn1c(Oc2cccc(N3CCN(C)CC3)c2)nnc1[C@@H](C)NS(=O)(=O)CCc1cccc2ccccc12` [Compound 523] was 114%.
Same read-out and setting: in the case of `CCn1c(Oc2cccc(N3CCN(C)CC3)c2)nnc1[C@@H](C)NS(=O)(=O)c1cc(F)c(F)cc1Cl` [Compound 580] it was 89.2%; in that of `CCn1c(Oc2ccc3cc[nH]c3c2)nnc1[C@@H](C)NS(=O)(=O)c1cc(C)ccc1F` [Compound 451], 76.8%; in that of `CCn1c(Oc2cccc(N3CCN(C)CC3)c2)nnc1[C@@H](C)NS(=O)(=O)c1cc(Cl)ccc1Cl` [Compound 511], 98.6%.
Turning to `CCn1c(Oc2cccc(N3CCN(C)CC3)c2)nnc1[C@@H](C)NS(=O)(=O)c1cc(F)c(F)c(F)c1` [Compound 608], the inhibition at 10 µM stood at 109%.
The same measure, in the same setting: in the case of `CCn1c(Oc2cccc(N3CCN(C)CC3)c2)nnc1[C@@H](C)NS(=O)(=O)c1ccc(Cl)cc1Cl` [Compound 567] it was 102%; in that of `CCn1c(Oc2cccc(N3CCN(C)CC3)c2)nnc1[C@@H](C)NS(=O)(=O)c1ccc(C)c(F)c1` [Compound 612], 114%; in that of `CCn1c(Oc2ccc3cc[nH]c3c2)nnc1[C@@H](C)NS(=O)(=O)c1ccsc1` [Compound 466], 51.1%.
`CCn1c(Oc2cccc(N3CCN(C)CC3)c2)nnc1[C@@H](C)NS(=O)(=O)c1c(F)cccc1F` [Compound 590]: the inhibition at 10 µM is 62.3%.
On the same count and under the same terms, the value for `CCn1c(Oc2ccc3cc[nH]c3c2)nnc1[C@@H](C)NS(=O)(=O)c1cc(C)cc(C)c1` [Compound 433] was 93.8%; that for `CCn1c(Oc2cccc(N3CCN(C)CC3)c2)nnc1[C@@H](C)NS(=O)(=O)c1ccc2c(c1)OCCCO2` [Compound 674] was 97%.
`CCn1c(Oc2ccc3cc[nH]c3c2)nnc1[C@@H](C)NS(=O)(=O)c1cccc(Cl)c1F` [Compound 452]: the inhibition at 10 µM was 68.9%.
Regarding `CCn1c(Oc2ccc3cc[nH]c3c2)nnc1[C@@H](C)NS(=O)(=O)c1cc(F)c(Cl)cc1F` [Compound 415], the inhibition at 10 µM is 91.5%.
Still for that read-out and setting: in the case of `CCn1c(Oc2ccc3cc[nH]c3c2)nnc1[C@@H](C)NS(=O)(=O)c1ccc(C(C)C)cc1` [Compound 404] it was 60.2%.
Same read-out and setting: the value for `CCn1c(Oc2cccc(N3CCN(C)CC3)c2)nnc1[C@@H](C)NS(=O)(=O)c1ccccc1C#N` [Compound 506] was 83.2%; that for `CCC(NS(=O)(=O)c1ccc2c(Cl)cccc2c1)c1nnc(Oc2cccc(N3CCN(C)CC3)c2)n1CC` (stereo not shown) [Compound 671] was 101%; that for `CCn1c(Oc2cccc(N3CCN(C)CC3)c2)nnc1[C@@H](C)NS(=O)(=O)c1c(Cl)cc(Cl)cc1Cl` [Compound 566] was 88.7%.
As for `CCn1c(Oc2ccc3cc[nH]c3c2)nnc1[C@@H](C)NS(=O)(=O)c1cc(Br)c(F)cc1F` [Compound 416], the inhibition at 10 µM amounted to 83.2%.
On the same count and under the same terms, the value for `CCn1c(Oc2cccc(N3CCN(C)CC3)c2)nnc1[C@@H](C)NS(=O)(=O)c1c(C)nn(C)c1C` [Compound 544] was 53.9%.
Take `CCn1c(Oc2ccc3cc[nH]c3c2)nnc1[C@@H](C)NS(=O)(=O)c1cc(C(F)(F)F)ccc1Cl` [Compound 422]: the inhibition at 10 µM is 83.1%.
Consider `CCn1c(Oc2cccc(N3CCN(C)CC3)c2)nnc1[C@@H](C)NS(=O)(=O)c1c(C)c(C)cc(C)c1C` [Compound 549], for which the inhibition at 10 µM amounted to 89.2%.
As for `CCc1ccc(S(=O)(=O)N[C@H](C)c2nnc(Oc3cccc(N4CCN(C)CC4)c3)n2CC)cc1` [Compound 515], the inhibition at 10 µM is 109%.
Still for that read-out and setting: in the case of `CCn1c(Oc2ccc3cc[nH]c3c2)nnc1[C@@H](C)NS(=O)(=O)c1ccc(Br)cc1C` [Compound 407] it was 68.2%.
The same measure, in the same setting: in the case of `CCn1c(Oc2cccc(N3CCN(C)CC3)c2)nnc1[C@@H](C)NS(=O)(=O)c1cccc(Br)c1` [Compound 503] it was 116%; in that of `CCn1c(Oc2cccc(N3CCN(C)CC3)c2)nnc1[C@@H](C)NS(=O)(=O)c1c(F)c(F)c(F)c(F)c1F` [Compound 524], 83%; in that of `CCn1c(Oc2ccc3cc[nH]c3c2)nnc1[C@@H](C)NS(=O)(=O)c1ccc(C(F)(F)F)cc1Cl` [Compound 475], 51.8%.

Staying with this test, now noted: test compound at 10 μM; inhibition of [33P]-S1P binding to the membrane fraction of HEK-293 cells expressing human Edg-1 (S1P1).
Consider `CCc1ccc(OC)c(S(=O)(=O)N[C@H](C)c2nnc(Oc3ccc(F)cc3)n2CC)c1` [Compound 311], for which the inhibition at 10 µM is 76.5%.
Still for that read-out and setting: in the case of `CCn1c(Oc2ccc(F)cc2)nnc1[C@@H](C)NS(=O)(=O)c1ccc(-c2csnn2)s1` [Compound 196] it was 65.6%; in that of `CCn1c(Oc2ccc(F)cc2)nnc1[C@@H](C)NS(=O)(=O)c1ccc(C(C)(C)C)cc1` [Compound 157], 74.6%.
On the same count and under the same terms, the value for `CCn1c(Oc2ccc(F)cc2)nnc1[C@@H](C)NS(=O)(=O)c1cc(Br)ccc1OC` [Compound 218] was 74.7%; that for `CCn1c(Oc2ccc(F)cc2)nnc1[C@@H](C)NS(=O)(=O)c1ccc2c(c1)OCCO2` [Compound 289] was 106%.
With `CCn1c(Oc2ccc3cc[nH]c3c2)nnc1[C@@H](C)NS(=O)(=O)c1ccc(C)cc1` [Compound 359], the inhibition at 10 µM turned out to be 95.7%.
As for `CCn1c(Oc2ccc3cc[nH]c3c2)nnc1[C@@H](C)NS(=O)(=O)c1c(C)c(C)c(C)c(C)c1C` [Compound 391], the inhibition at 10 µM turned out to be 80.4%.
As for `CCn1c(Oc2ccc(F)cc2)nnc1[C@@H](C)NS(=O)(=O)c1ccc(C)c(Cl)c1` [Compound 127], the inhibition at 10 µM came to 94.4%.
The same measure, in the same setting: in the case of `CCn1c(Oc2ccc(F)cc2)nnc1[C@@H](C)NS(=O)(=O)c1c(C)cc(Cl)cc1Cl` [Compound 255] it was 86.4%; in that of `CCn1c(Oc2cccc(N3CCC4(CC3)OCCO4)c2)nnc1[C@@H](C)NS(=O)(=O)c1ccc(Cl)c(Cl)c1` [Compound 87, 3,4-Dichloro-N-((R)-1-[5-[3-(1,4-dioxa-8-aza-spiro[4.5]decan-8-yl)-phenoxy]-4-ethyl-4H-[1,2,4]triazol-3-yl]-ethyl)-benzenesulfonamide], 99.9%; in that of `CCn1c(Oc2ccc(F)cc2)nnc1[C@@H](C)NS(=O)(=O)c1cc(Cl)c(F)cc1F` [Compound 245], 89.3%.
The same measure, in the same setting: in the case of `CCn1c(Oc2ccc(F)cc2)nnc1[C@@H](C)NS(=O)(=O)c1cccc(C(C)=O)c1` [Compound 306] it was 60.2%.
Consider `CCn1c(Oc2ccc(F)cc2)nnc1[C@@H](C)NS(=O)(=O)c1cccc(Br)c1` [Compound 160], for which the inhibition at 10 µM came out at 96.9%.
`CCn1c(Oc2ccc(F)cc2)nnc1[C@@H](C)NS(=O)(=O)c1ccc(C(C)=O)cc1` [Compound 154]: the inhibition at 10 µM amounted to 92.3%.
Consider `CCn1c(Oc2ccc(F)cc2)nnc1[C@@H](C)NS(=O)(=O)c1cc(F)ccc1C` [Compound 219], for which the inhibition at 10 µM is 70.8%.
